From patent US11453703B2, “Heterotandem bicyclic peptide complexes” (BicycleTX Limited, priority 2018, dated 2022)
Starred links: 1 amine or outer side, 2 acyl side, 3 side chain; linkers in the order of their positions; H or OH if unused. Positions of bridges follow the written chain, without caps; N, C: chain ends. Non-standard residues stand in square brackets, D forms with d. Residues, ends and D or L forms follow the SMILES beside them. Chains are numbered I, II in the order given. TATA = O=C(CC[*:1])N1CN(C(=O)CC[*:2])CN(C(=O)CC[*:3])C1; X2 = O=C(CCOCCOCCOCCOCCOCCn1cc(CCC(=O)[*:2])nn1)[*:1]; Hyp = O=C(O)[C@@H]1C[C@@H](O)CN1; hArg = N=C(N)NCCCC[C@H](N)C(=O)O; tBuAla = CC(C)(C)C[C@H](N)C(=O)O; Nle = CCCC[C@H](N)C(=O)O

Target: CD137 (Homo sapiens, UniProt Q07011)
Test: CD137 reporter assay, co-culture with EphA2 tumour cells
Type: cell-based
Parameters: host or cells: Jurkat reporter cells
Protocol: Culture medium referred to as R1 media is prepared by adding 1% FBS to RPMI-1640 (component of Promega kit CS196005). Serial dilutions of test articles in R1 are prepared in a sterile 96 well-plate. Use 25 μl per well of test articles or R1 (as a background control) to designated wells in white cell culture plate. Tumour cells* are harvested and resuspended at a concentration of 400,000 cells/mL in R1 media. Twenty five (25) μL/well tumour cells are used in white cell culture plate. Jurkat cells (Promega kit CS196005, 0.5 mL) are thawed in the water bath and then added to 5 ml pre-warmed R1 medium. Twenty five (25) μL/well Jurkat cells are used in white cell culture plate. Incubate the cells and test articles for 6h at 37° C., 5% CO2. At the end of 6 h, add 75 μl/well Bio-Glo™ (Promega) and incubate for 10 min before reading luminescence in a plate reader (Clariostar, BMG). The fold change relative to cells (Jurkat cells+Cell line used in co-culture) is calculated and plotted in GraphPad Prism as log(agonist) vs response to determine EC50 (nM) and Fold Induction over background (Max)

[1] = tumour target EphA2, co-culture with SC-OV-3, 6 h
[2] = tumour target EphA2, co-culture with PC3, 6 h

Sequence of CD137 (Q07011 24-255): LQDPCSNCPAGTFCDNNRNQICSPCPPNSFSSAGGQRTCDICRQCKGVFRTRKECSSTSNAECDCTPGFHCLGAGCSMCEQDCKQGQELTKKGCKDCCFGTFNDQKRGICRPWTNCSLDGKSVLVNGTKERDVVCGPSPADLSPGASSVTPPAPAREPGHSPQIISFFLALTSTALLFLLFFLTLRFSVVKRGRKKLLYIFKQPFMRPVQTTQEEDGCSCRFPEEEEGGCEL

SMILES | Fold Induction over Background [1] [fold] | EC50 [1] [nM] | Fold Induction over Background [2] [fold] | EC50 [2] [nM]
CCCC[C@@H]1NC(=O)[C@H](Cc2ccc(O)cc2)NC(=O)[C@@H]2CCCN2C(=O)[C@H](CC(=O)O)NC(=O)[C@H](C)NC(=O)[C@H](Cc2ccccc2)NC(=O)[C@@H]2CSCCC(=O)N3CN(CN(C3)C(=O)CCSC[C@@H](C(=O)N[C@@H](CNC(=O)CCOCCOCCOCCOCCOCCOCCOCCOCCOCCOCCOCCOCCn3cc(CCC(=O)NCCC(=O)N(C)CC(=O)N(C)CC(=O)N(C)CC(=O)N(C)CC(=O)N(C)CC(=O)N(C)CC(=O)N(C)CC(=O)N(C)CC(=O)N(C)CC(=O)N(C)CC(=O)N[C@@H](C)C(=O)N[C@@H](CCCCNC(=N)N)C(=O)N[C@@H](CC(=O)O)C(=O)N[C@H]4CSCCC(=O)N5CN6CN(C5)C(=O)CCSC[C@H](NC(=O)[C@H](CC(C)C)NC(=O)[C@@H]5CCCN5C(=O)[C@H](CC(N)=O)NC(=O)[C@H](C(C)C)NC(=O)[C@H](CC(C)C)NC(=O)[C@@H]5C[C@@H](O)CN5C4=O)C(=O)N[C@@H](CC(C)C)C(=O)N[C@@H](Cc4c[nH]cn4)C(=O)N4CCC[C@H]4C(=O)N[C@H](CC(=O)O)C(=O)N[C@@H](Cc4c[nH]c5ccccc45)C(=O)N[C@@H](CCCCNC(=N)N)C(=O)N[C@H](C(N)=O)CSCCC6=O)nn3)C(N)=O)NC1=O)C(=O)CCSC[C@H](NC(C)=O)C(=O)N[C@@H](CC(C)(C)C)C(=O)N1CCC[C@H]1C(=O)N[C@@H](CCC(=O)O)C(=O)N[C@H](C)C(=O)N1CCC[C@H]1C(=O)N[C@@H](Cc1ccc(O)cc1)C(=O)N2 [BCY9173] | 21 |  |  | 
CCCC[C@@H]1NC(=O)[C@H](Cc2ccc(O)cc2)NC(=O)[C@@H]2CCCN2C(=O)[C@H](CC(=O)O)NC(=O)[C@H](C)NC(=O)[C@H](Cc2ccccc2)NC(=O)[C@@H]2CSCCC(=O)N3CN(CN(C3)C(=O)CCSC[C@@H](C(=O)N[C@@H](CNC(=O)CCOCCOCCOCCOCCOCCOCCOCCOCCOCCOCCOCCOCCOCCOCCOCCOCCOCCOCCOCCOCCOCCOCCOCCOCCOCCC(=O)NCCC(=O)N(C)CC(=O)N(C)CC(=O)N(C)CC(=O)N(C)CC(=O)N(C)CC(=O)N(C)CC(=O)N(C)CC(=O)N(C)CC(=O)N(C)CC(=O)N(C)CC(=O)N[C@@H](C)C(=O)N[C@@H](CCCCNC(=N)N)C(=O)N[C@@H](CC(=O)O)C(=O)N[C@H]3CSCCC(=O)N4CN5CN(C4)C(=O)CCSC[C@H](NC(=O)[C@H](CC(C)C)NC(=O)[C@@H]4CCCN4C(=O)[C@H](CC(N)=O)NC(=O)[C@H](C(C)C)NC(=O)[C@H](CC(C)C)NC(=O)[C@@H]4C[C@@H](O)CN4C3=O)C(=O)N[C@@H](CC(C)C)C(=O)N[C@@H](Cc3c[nH]cn3)C(=O)N3CCC[C@H]3C(=O)N[C@H](CC(=O)O)C(=O)N[C@@H](Cc3c[nH]c4ccccc34)C(=O)N[C@@H](CCCCNC(=N)N)C(=O)N[C@H](C(N)=O)CSCCC5=O)C(N)=O)NC1=O)C(=O)CCSC[C@H](NC(=O)[C@H](C)NC(C)=O)C(=O)N[C@@H]([C@@H](C)CC)C(=O)N[C@@H](CCC(=O)O)C(=O)N[C@@H](CCC(=O)O)C(=O)NCC(=O)N[C@@H](CCC(N)=O)C(=O)N[C@@H](Cc1ccc(O)cc1)C(=O)N2 [BCY9758] | 7 | 1.2 |  | 
CCCC[C@@H]1NC(=O)[C@H](Cc2ccc(O)cc2)NC(=O)[C@@H]2CCCN2C(=O)[C@H](CC(=O)O)NC(=O)[C@H](C)NC(=O)[C@H](Cc2ccccc2)NC(=O)[C@@H]2CSCCC(=O)N3CN(CN(C3)C(=O)CCSC[C@@H](C(=O)N[C@@H](C)C(N)=O)NC1=O)C(=O)CCSC[C@H](NC(C)=O)C(=O)N[C@@H](CC(C)(C)C)C(=O)N1CCC[C@H]1C(=O)N[C@@H](CCCCNC(=O)CCOCCOCCOCCOCCOCCOCCOCCOCCOCCOCCOCCOCCn1cc(CCC(=O)NCCC(=O)N(C)CC(=O)N(C)CC(=O)N(C)CC(=O)N(C)CC(=O)N(C)CC(=O)N(C)CC(=O)N(C)CC(=O)N(C)CC(=O)N(C)CC(=O)N(C)CC(=O)N[C@@H](C)C(=O)N[C@@H](CCCCNC(=N)N)C(=O)N[C@@H](CC(=O)O)C(=O)N[C@H]3CSCCC(=O)N4CN5CN(C4)C(=O)CCSC[C@H](NC(=O)[C@H](CC(C)C)NC(=O)[C@@H]4CCCN4C(=O)[C@H](CC(N)=O)NC(=O)[C@H](C(C)C)NC(=O)[C@H](CC(C)C)NC(=O)[C@@H]4C[C@@H](O)CN4C3=O)C(=O)N[C@@H](CC(C)C)C(=O)N[C@@H](Cc3c[nH]cn3)C(=O)N3CCC[C@H]3C(=O)N[C@H](CC(=O)O)C(=O)N[C@@H](Cc3c[nH]c4ccccc34)C(=O)N[C@@H](CCCCNC(=N)N)C(=O)N[C@H](C(N)=O)CSCCC5=O)nn1)C(=O)N[C@H](C)C(=O)N1CCC[C@H]1C(=O)N[C@@H](Cc1ccc(O)cc1)C(=O)N2 [BCY10568] |  |  | 32 | 
CCCC[C@@H]1NC(=O)[C@H](Cc2ccc(O)cc2)NC(=O)[C@@H]2CCCN2C(=O)[C@H](CC(=O)O)NC(=O)[C@H](C)NC(=O)[C@H](Cc2ccccc2)NC(=O)[C@@H]2CSCCC(=O)N3CN(CN(C3)C(=O)CCSC[C@@H](C(=O)N[C@@H](C)C(N)=O)NC1=O)C(=O)CCSC[C@H](NC(C)=O)C(=O)N[C@@H](CC(C)(C)C)C(=O)N1CCC[C@H]1C(=O)N[C@@H](CCC(=O)O)C(=O)N[C@H](CCCCNC(=O)CCOCCOCCOCCOCCOCCOCCOCCOCCOCCOCCOCCOCCn1cc(CCC(=O)NCCC(=O)N(C)CC(=O)N(C)CC(=O)N(C)CC(=O)N(C)CC(=O)N(C)CC(=O)N(C)CC(=O)N(C)CC(=O)N(C)CC(=O)N(C)CC(=O)N(C)CC(=O)N[C@@H](C)C(=O)N[C@@H](CCCCNC(=N)N)C(=O)N[C@@H](CC(=O)O)C(=O)N[C@H]3CSCCC(=O)N4CN5CN(C4)C(=O)CCSC[C@H](NC(=O)[C@H](CC(C)C)NC(=O)[C@@H]4CCCN4C(=O)[C@H](CC(N)=O)NC(=O)[C@H](C(C)C)NC(=O)[C@H](CC(C)C)NC(=O)[C@@H]4C[C@@H](O)CN4C3=O)C(=O)N[C@@H](CC(C)C)C(=O)N[C@@H](Cc3c[nH]cn3)C(=O)N3CCC[C@H]3C(=O)N[C@H](CC(=O)O)C(=O)N[C@@H](Cc3c[nH]c4ccccc34)C(=O)N[C@@H](CCCCNC(=N)N)C(=O)N[C@H](C(N)=O)CSCCC5=O)nn1)C(=O)N1CCC[C@H]1C(=O)N[C@@H](Cc1ccc(O)cc1)C(=O)N2 [BCY10570] |  |  | 38 | 0.41
CCCC[C@@H]1NC(=O)[C@H](Cc2ccc(O)cc2)NC(=O)[C@@H]2CCCN2C(=O)[C@H](CC(=O)O)NC(=O)[C@H](C)NC(=O)[C@H](Cc2ccccc2)NC(=O)[C@@H]2CSCCC(=O)N3CN(CN(C3)C(=O)CCSC[C@@H](C(=O)N[C@@H](C)C(N)=O)NC1=O)C(=O)CCSC[C@H](NC(C)=O)C(=O)N[C@@H](CC(C)(C)C)C(=O)N1CCC[C@H]1C(=O)N[C@@H](CCCCNC(=O)CCc1cn(CCOCCOCCOCCOCCOCCC(=O)N[C@@H](C)C(=O)N[C@@H](CCCCNC(=N)N)C(=O)N[C@@H](CC(=O)O)C(=O)N[C@H]3CSCCC(=O)N4CN5CN(C4)C(=O)CCSC[C@H](NC(=O)[C@H](CC(C)C)NC(=O)[C@@H]4CCCN4C(=O)[C@H](CC(N)=O)NC(=O)[C@H](C(C)C)NC(=O)[C@H](CC(C)C)NC(=O)[C@@H]4C[C@@H](O)CN4C3=O)C(=O)N[C@@H](CC(C)C)C(=O)N[C@@H](Cc3c[nH]cn3)C(=O)N3CCC[C@H]3C(=O)N[C@H](CC(=O)O)C(=O)N[C@@H](Cc3c[nH]c4ccccc34)C(=O)N[C@@H](CCCCNC(=N)N)C(=O)N[C@H](C(N)=O)CSCCC5=O)nn1)C(=O)N[C@H](C)C(=O)N1CCC[C@H]1C(=O)N[C@@H](Cc1ccc(O)cc1)C(=O)N2 [BCY10574] (I: A[hArg]DC[Hyp]LVNPLCLHP[dD]W[hArg]C-NH2 / II: Ac-C[tBuAla]PK[dA]PYCFADPY[Nle]CA-NH2; linker I:4-I:11-I:18, II:1-II:8-II:15 via TATA; linker I:N-II:4 via X2) |  |  | 32 | 1
CCCC[C@@H]1NC(=O)[C@H](Cc2ccc(O)cc2)NC(=O)[C@@H]2CCCN2C(=O)[C@H](CC(=O)O)NC(=O)[C@H](C)NC(=O)[C@H](Cc2ccccc2)NC(=O)[C@@H]2CSCCC(=O)N3CN(CN(C3)C(=O)CCSC[C@@H](C(=O)N[C@@H](C)C(N)=O)NC1=O)C(=O)CCSC[C@H](NC(C)=O)C(=O)N[C@@H](CC(C)(C)C)C(=O)N1CCC[C@H]1C(=O)N[C@@H](CCC(=O)O)C(=O)N[C@H](CCCCNC(=O)CCc1cn(CCOCCOCCOCCOCCOCCC(=O)N[C@@H](C)C(=O)N[C@@H](CCCCNC(=N)N)C(=O)N[C@@H](CC(=O)O)C(=O)N[C@H]3CSCCC(=O)N4CN5CN(C4)C(=O)CCSC[C@H](NC(=O)[C@H](CC(C)C)NC(=O)[C@@H]4CCCN4C(=O)[C@H](CC(N)=O)NC(=O)[C@H](C(C)C)NC(=O)[C@H](CC(C)C)NC(=O)[C@@H]4C[C@@H](O)CN4C3=O)C(=O)N[C@@H](CC(C)C)C(=O)N[C@@H](Cc3c[nH]cn3)C(=O)N3CCC[C@H]3C(=O)N[C@H](CC(=O)O)C(=O)N[C@@H](Cc3c[nH]c4ccccc34)C(=O)N[C@@H](CCCCNC(=N)N)C(=O)N[C@H](C(N)=O)CSCCC5=O)nn1)C(=O)N1CCC[C@H]1C(=O)N[C@@H](Cc1ccc(O)cc1)C(=O)N2 [BCY10575] (I: A[hArg]DC[Hyp]LVNPLCLHP[dD]W[hArg]C-NH2 / II: Ac-C[tBuAla]PE[dK]PYCFADPY[Nle]CA-NH2; linker I:4-I:11-I:18, II:1-II:8-II:15 via TATA; linker I:N-II:5 via X2) |  |  | 38 | 0.62
